The values below come from patent US20210070866A1, “Pharmaceutical Composition For Preventing Or Treating Tissue Adhesion Comprising Integrin a2ß1 Inhibitors” (KOREA UNIVERSITY RESEARCH AND BUSINESS FOUNDATION, priority 2019, published 2021).

One series deals with integrin α2β1 (Homo sapiens, UniProt P17301). As to conditions: according to manufacturer's instructions; read-out: half maximal effective concentration (EC50); cited from earlier work.
In a further series the test system is co-cultured hDMCs. The series is described as follows: Adhesion assay of co-cultured hDMCs to ECM components after integrin α2β1 inhibitor treatment. It counts as cell-based, human. As to conditions: 130 nM, 37° C., 30 min. The procedure:
Adhesion assays identifying ECM components adhering to hDMC were performed using CytoSelect 48-well cell adhesion assay kits (Cell Biolabs Inc., San Diego, Calif.).
After detachment of naïve hDMCs and MΦ-co-cultured hDMCs, cell suspensions were prepared in serum-free DMEM. A total of 1.5×10^3 cells in 150 μl serum-free medium were added to each well and incubated for 1 hour at 37° C. After removal of the medium, the cells were washed four times with 150 μl PBS.
Cell staining and protein extraction were performed according to the manufacturer's instructions. Cellular adhesion was assessed by measuring the optical density at 560 nm on a Gemini XPS Microplate Reader (Molecular Devices, Sunnyvale, Calif.).
For an adhesion assay for the functional validation of integrin α2β1, the co-cultured hDMCs were incubated with 130 nM BTT 3033 at 37° C. for 30 min. After incubation, an adhesion assay was performed as described above.

The next series relates to hDMCs. The experiment in a line: Cytotoxicity assay of BTT 3033 (cell viability assay, WST). In kind it is cell-based, human. As to conditions: for Viability (A.U.): 37° C., 90 min. The procedure: To evaluate cell viability, EZ-Cytox cell viability assay kit (Daeillab Service Ltd., Seoul, Republic of Korea) was used according to the manufacturer's instructions. Water-soluble tetrazolium salt (WST) reagent was added to each well. After 1 hour of incubation, the absorbance of the supernatant was measured at the wavelength of 450 nm on a microplate absorbance reader. The viability was assessed by normalized absorbance values.
For cytotoxicity assay of BTT 3033, hDMCs were treated with BTT 3033 in a dose dependent manner and incubated at 37° C. for 90 min. After incubation, cell viability assay was performed.

integrin α2β1, sequence (P17301 30-1181): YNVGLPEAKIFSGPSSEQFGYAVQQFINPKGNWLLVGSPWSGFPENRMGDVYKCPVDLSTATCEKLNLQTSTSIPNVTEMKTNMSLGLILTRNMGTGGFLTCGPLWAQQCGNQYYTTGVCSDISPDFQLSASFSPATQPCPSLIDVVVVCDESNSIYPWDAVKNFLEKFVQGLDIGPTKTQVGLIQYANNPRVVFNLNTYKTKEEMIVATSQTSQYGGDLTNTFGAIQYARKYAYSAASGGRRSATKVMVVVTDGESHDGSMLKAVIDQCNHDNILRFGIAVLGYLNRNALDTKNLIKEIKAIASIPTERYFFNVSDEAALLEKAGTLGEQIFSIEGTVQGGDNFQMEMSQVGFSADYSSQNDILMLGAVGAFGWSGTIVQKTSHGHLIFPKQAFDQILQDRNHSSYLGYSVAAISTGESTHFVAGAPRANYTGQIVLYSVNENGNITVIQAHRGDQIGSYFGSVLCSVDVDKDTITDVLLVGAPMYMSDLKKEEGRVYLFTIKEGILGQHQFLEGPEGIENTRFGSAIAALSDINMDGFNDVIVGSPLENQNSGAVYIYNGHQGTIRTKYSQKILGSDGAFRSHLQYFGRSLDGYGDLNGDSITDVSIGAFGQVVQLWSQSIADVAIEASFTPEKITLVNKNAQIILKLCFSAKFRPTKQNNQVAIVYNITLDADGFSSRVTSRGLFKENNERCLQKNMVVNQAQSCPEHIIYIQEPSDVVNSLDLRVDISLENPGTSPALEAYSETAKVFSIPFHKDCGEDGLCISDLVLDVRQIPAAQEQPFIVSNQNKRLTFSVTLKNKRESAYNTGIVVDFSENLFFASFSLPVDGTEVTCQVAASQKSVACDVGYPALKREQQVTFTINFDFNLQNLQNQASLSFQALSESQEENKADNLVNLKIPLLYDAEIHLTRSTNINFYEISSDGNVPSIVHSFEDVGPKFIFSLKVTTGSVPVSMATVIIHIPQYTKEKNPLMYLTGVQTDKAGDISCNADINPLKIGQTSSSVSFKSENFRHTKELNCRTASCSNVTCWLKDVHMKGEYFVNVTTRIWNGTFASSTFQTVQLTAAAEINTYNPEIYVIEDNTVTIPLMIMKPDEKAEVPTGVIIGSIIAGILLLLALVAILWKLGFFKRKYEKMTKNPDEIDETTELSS
integrin α2β1, sequence (P05556 21-798 partner): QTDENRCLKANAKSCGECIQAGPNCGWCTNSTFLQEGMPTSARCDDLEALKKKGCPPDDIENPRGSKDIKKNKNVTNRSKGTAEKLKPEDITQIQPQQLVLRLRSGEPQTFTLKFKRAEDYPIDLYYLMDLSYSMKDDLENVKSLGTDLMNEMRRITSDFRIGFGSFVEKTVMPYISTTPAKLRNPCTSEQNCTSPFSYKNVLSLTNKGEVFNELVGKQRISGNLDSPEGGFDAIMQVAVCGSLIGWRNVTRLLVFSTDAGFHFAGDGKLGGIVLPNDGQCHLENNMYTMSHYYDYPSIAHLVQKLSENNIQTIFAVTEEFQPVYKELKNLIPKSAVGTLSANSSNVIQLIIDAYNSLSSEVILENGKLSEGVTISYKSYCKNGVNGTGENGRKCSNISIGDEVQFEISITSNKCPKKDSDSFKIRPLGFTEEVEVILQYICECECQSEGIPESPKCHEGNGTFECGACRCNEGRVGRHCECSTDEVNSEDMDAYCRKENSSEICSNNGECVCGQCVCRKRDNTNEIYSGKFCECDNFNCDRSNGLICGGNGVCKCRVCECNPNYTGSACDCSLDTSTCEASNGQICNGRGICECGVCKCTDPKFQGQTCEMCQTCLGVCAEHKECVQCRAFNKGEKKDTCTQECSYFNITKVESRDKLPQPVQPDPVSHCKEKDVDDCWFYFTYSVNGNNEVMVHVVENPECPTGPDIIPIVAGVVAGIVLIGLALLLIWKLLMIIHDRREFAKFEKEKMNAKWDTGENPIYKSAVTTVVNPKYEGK

Consider `CN(c1ccc(NC(=O)Nc2ccccc2)cc1)S(=O)(=O)c1cnn(-c2ccc(F)cc2)c1` [BTT 3033, 1-(4-Fluorophenyl)-N-methyl-N-[4[[(phenylamino)carbonyl]amino]phenyl]-1H-pyrazole-4-sulfonamide], for which the EC50 at integrin α2β1 is 0.13 µM. In the series on co-cultured hDMCs (un-treated 0.43±0.03), the “adhesion of co-cultured hDMCs to collagen I” value was determined as 0.27±0.04. Besides, in the series on co-cultured hDMCs (un-treated 0.44±0.08), the “adhesion of co-cultured hDMCs to collagen IV” value came out at 0.28±0.08. Also, the “reduction of adhesion of co-cultured hDMCs to collagen I” value with co-cultured hDMCs (vs un-treated, p<0.001) is reported as 37.8%. The “reduction of adhesion of co-cultured hDMCs to collagen IV” value in the series with co-cultured hDMCs (vs un-treated, p=0.057) is given as 35.7%. Further, the “Viability (A.U.)” value with hDMCs (BTT 3033 16.25 nM) stood at 0.896 ± 0.090 A.U; in the series with hDMCs (BTT 3033 32.50 nM), 0.844 ± 0.099 A.U; in the series with hDMCs (BTT 3033 65.00 nM) it was 0.899 ± 0.075 A.U; with hDMCs (BTT 3033 130.00 nM), 0.800 ± 0.054 A.U; in the series with hDMCs (BTT 3033 260.00 nM) it was 0.854 ± 0.081 A.U; with hDMCs (BTT 3033 520.00 nM), 0.827 ± 0.069 A.U. Also, the cytotoxicity result with hDMCs (concentration from 16.25 to 520.00 nM) is listed as “less than 20.0%”.
